Laboratory results: PubChem BioAssay (NCI)
Values joined by “and” are separate entries in the source; they are usually repeats but may differ in a detail not shown here. Equal values may be shown once.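 All cell lines were grown in 96-well plates and treated with compound for 48 hours. GI50 = concentration required for 50% inhibition of growth. TGI: concentration producing complete growth inhibition.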

Tests used:
Assay in all cases: NCI tumour cell line growth inhibition, 48 h
[1] = tested on: 786-0 renal
[2] = tested on: A498 renal
[3] = tested on: A549 NSCLC
[4] = tested on: ACHN renal
[5] = tested on: CAKI-1 renal
[6] = tested on: CCRF-CEM leukemia
[7] = tested on: COLO 205 colon
[8] = tested on: DLD-1 colon
[9] = tested on: DMS 114 small cell lung
[10] = tested on: DMS 273 small cell lung
[11] = tested on: EKVX NSCLC
[12] = tested on: HCC-2998 colon
[13] = tested on: HCT-116 colon
[14] = tested on: HCT-15 colon
[15] = tested on: HL-60(TB) leukemia
[16] = tested on: HOP-18 NSCLC
[17] = tested on: HOP-62 NSCLC
[18] = tested on: HOP-92 NSCLC
[19] = tested on: HT29 colon
[20] = tested on: IGROV1 ovarian
[21] = tested on: K-562 leukemia
[22] = tested on: KM12 colon
[23] = tested on: KM20L2 colon
[24] = tested on: LOX IMVI melanoma
[25] = tested on: LXFL 529 NSCLC
[26] = tested on: M14 melanoma
[27] = tested on: M19-MEL melanoma
[28] = tested on: MALME-3M melanoma
[29] = tested on: MOLT-4 leukemia
[30] = tested on: NCI-H226 lung
[31] = tested on: NCI-H23 lung
[32] = tested on: NCI-H460 lung
[33] = tested on: NCI-H522 lung
[34] = tested on: OVCAR-3 ovarian
[35] = tested on: OVCAR-4 ovarian
[36] = tested on: OVCAR-5 ovarian
[37] = tested on: OVCAR-8 ovarian
[38] = tested on: RPMI-8226 leukemia
[39] = tested on: RXF 393 renal
[40] = tested on: RXF-631 renal
[41] = tested on: SF-268 CNS
[42] = tested on: SF-295 CNS
[43] = tested on: SF-539 CNS
[44] = tested on: SK-MEL-2 melanoma
[45] = tested on: SK-MEL-28 melanoma
[46] = tested on: SK-MEL-5 melanoma
[47] = tested on: SK-OV-3 ovarian
[48] = tested on: SN12C renal
[49] = tested on: SNB-19 CNS
[50] = tested on: SNB-75 CNS
[51] = tested on: SNB-78 CNS
[52] = tested on: SR leukemia
[53] = tested on: SW-620 colon
[54] = tested on: TK-10 renal
[55] = tested on: U251 CNS
[56] = tested on: UACC-257 melanoma
[57] = tested on: UACC-62 melanoma
[58] = tested on: UO-31 renal
[59] = tested on: XF 498 CNS

C=C(C)C1CC=C(C)CC1 (stereo not drawn)
GI50 [1]: > 100 µM | TGI [1]: > 100 µM and 1620 µM | TGI [2]: 1610 µM | GI50 [3]: > 100 µM | TGI [3]: > 100 µM and 1790 µM | GI50 [4]: > 100 µM | TGI [4]: > 100 µM and 1570 µM | GI50 [5]: > 100 µM | TGI [5]: > 100 µM and 1680 µM | GI50 [6]: > 100 µM | TGI [6]: > 100 µM and 1670 µM | GI50 [7]: > 100 µM | TGI [7]: > 100 µM and 1760 µM | GI50 [8]: > 100 µM | TGI [8]: > 100 µM and 1610 µM | GI50 [9]: > 100 µM | TGI [9]: > 100 µM and 1650 µM | GI50 [10]: > 100 µM | TGI [10]: > 100 µM and 1720 µM | GI50 [11]: > 100 µM | TGI [11]: > 100 µM and 1830 µM | GI50 [12]: > 100 µM | TGI [12]: > 100 µM and 1730 µM | GI50 [13]: > 100 µM | TGI [13]: > 100 µM and 1620 µM | TGI [14]: 1620 µM | GI50 [15]: > 100 µM | TGI [15]: > 100 µM and 1720 µM | TGI [16]: > 100 µM | GI50 [17]: > 100 µM | TGI [17]: > 100 µM and 1630 µM | GI50 [18]: > 100 µM | TGI [18]: > 100 µM and 1530 µM | GI50 [19]: > 100 µM | TGI [19]: > 100 µM and 1730 µM | GI50 [20]: > 100 µM | TGI [20]: > 100 µM and 1830 µM | GI50 [21]: > 100 µM | TGI [21]: > 100 µM and 1720 µM | GI50 [22]: > 100 µM | TGI [22]: > 100 µM and 1830 µM | GI50 [23]: > 100 µM | TGI [23]: > 100 µM and 1750 µM | GI50 [24]: > 100 µM | TGI [24]: > 100 µM and 1620 µM | GI50 [25]: > 100 µM | TGI [25]: > 100 µM and 1550 µM | GI50 [26]: > 100 µM | TGI [26]: > 100 µM and 1700 µM | GI50 [27]: > 100 µM | TGI [27]: > 100 µM and 1580 µM | GI50 [28]: > 100 µM | TGI [28]: > 100 µM and 1690 µM | GI50 [29]: > 100 µM | TGI [29]: > 100 µM and 2180 µM | GI50 [30]: > 100 µM | TGI [30]: > 100 µM and 1570 µM | GI50 [31]: > 100 µM | TGI [31]: > 100 µM and 1690 µM | GI50 [32]: > 100 µM | TGI [32]: > 100 µM and 1730 µM | GI50 [33]: > 100 µM | TGI [33]: > 100 µM and 1710 µM | GI50 [34]: > 100 µM | TGI [34]: > 100 µM and 1590 µM | GI50 [35]: > 100 µM | TGI [35]: > 100 µM and 2070 µM | GI50 [36]: > 100 µM | TGI [36]: > 100 µM and 2420 µM | GI50 [37]: > 100 µM | TGI [37]: > 100 µM and 1860 µM | TGI [38]: > 100 µM | GI50 [39]: > 100 µM | TGI [39]: > 100 µM and 1730 µM | GI50 [40]: > 100 µM | TGI [40]: > 100 µM and 1720 µM | GI50 [41]: > 100 µM | TGI [41]: > 100 µM and 1680 µM | GI50 [42]: > 100 µM | TGI [42]: > 100 µM and 1630 µM | GI50 [43]: > 100 µM | TGI [43]: > 100 µM and 1690 µM | GI50 [44]: > 100 µM | TGI [44]: > 100 µM and 1720 µM | GI50 [45]: > 100 µM | TGI [45]: > 100 µM and 1680 µM | GI50 [46]: > 100 µM | TGI [46]: > 100 µM and 1560 µM | GI50 [47]: > 100 µM | TGI [47]: > 100 µM and 1900 µM | GI50 [48]: > 100 µM | TGI [48]: > 100 µM and 1640 µM | GI50 [49]: > 100 µM | TGI [49]: > 100 µM and 1870 µM | GI50 [50]: > 100 µM | TGI [50]: > 100 µM and 1710 µM | GI50 [51]: > 100 µM | TGI [51]: > 100 µM and 1960 µM | GI50 [52]: > 100 µM | TGI [52]: > 100 µM and 2050 µM | GI50 [53]: > 100 µM | TGI [53]: > 100 µM and 1590 µM | GI50 [54]: > 100 µM | TGI [54]: > 100 µM and 1760 µM | GI50 [55]: > 100 µM | TGI [55]: > 100 µM and 1480 µM | GI50 [56]: > 100 µM | TGI [56]: > 100 µM and 1850 µM | GI50 [57]: > 100 µM | TGI [57]: > 100 µM and 1550 µM | GI50 [58]: > 100 µM | TGI [58]: > 100 µM and 1620 µM | GI50 [59]: > 100 µM | TGI [59]: > 100 µM and 1720 µM

C[C@]12CCC[C@H](O)[C@H]1C[C@H](CO)CC2
TGI [1]: > 100 µM | TGI [2]: > 100 µM | TGI [3]: > 100 µM | TGI [4]: > 100 µM | TGI [5]: > 100 µM | TGI [6]: > 100 µM | TGI [7]: > 100 µM | TGI [8]: > 100 µM | TGI [10]: > 100 µM | TGI [12]: > 100 µM | TGI [13]: > 100 µM | TGI [14]: > 100 µM | TGI [15]: > 100 µM | TGI [16]: > 100 µM | TGI [17]: > 100 µM | TGI [18]: > 100 µM | TGI [19]: > 100 µM | TGI [20]: > 100 µM | TGI [21]: > 100 µM | TGI [22]: > 100 µM | TGI [23]: > 100 µM | TGI [24]: > 100 µM | TGI [25]: > 100 µM | TGI [26]: > 100 µM | TGI [27]: > 100 µM | TGI [28]: > 100 µM | TGI [29]: > 100 µM | TGI [30]: > 100 µM | TGI [31]: > 100 µM | TGI [32]: > 100 µM | TGI [33]: > 100 µM | TGI [34]: > 100 µM | TGI [35]: > 100 µM | TGI [36]: > 100 µM | TGI [37]: > 100 µM | TGI [38]: > 100 µM | TGI [40]: > 100 µM | TGI [41]: > 100 µM | TGI [42]: > 100 µM | TGI [43]: > 100 µM | TGI [44]: > 100 µM | TGI [45]: > 100 µM | TGI [47]: > 100 µM | TGI [48]: > 100 µM | TGI [49]: > 100 µM | TGI [50]: > 100 µM | TGI [52]: > 100 µM | TGI [53]: > 100 µM | TGI [54]: > 100 µM | TGI [55]: > 100 µM | TGI [56]: > 100 µM | TGI [57]: > 100 µM | TGI [58]: > 100 µM | TGI [59]: > 100 µM
